Data set [1] deals with HSV-1. Nature of the data set: Plaque reduction assay, HSV-1, Vero cells. It is filed as cell-based, HSV-1 (Kos-1). As for the experimental part:
(§1) used in Table 3 were further tested for activity against HSV infection in
(§2) a plaque reduction assay, as detailed in Example 6. Here Vero cells, after
(§3) overnight incubation, were exposed to serial dilutions of KY compound,
(§4) from 0.625-10 μg/ml, and HSV-1 or HSV-2 virus for two hours. After
(§5) washing to remove drug and extracellular virus, the cells were further
(§6) incubated for 2 days, then stained and counted for plaque formation.
(§7) Percent inhibition was determined by dividing plaques produced by total
(§8) number of plaques in infected, untreated controls. From the concentration
(§9) effect curve of plaque inhibition (expressed as percent of control), the
(§10) concentration of compound required to produce 50% plaque reduction,
(§11) IC50, was determined. The IC50 values for infection by HSV-1 and
(§12) HSV-2 infection is given in the right-hand columns in Table 3. With

For data set [2], the system named is HSV-2. The data set is described as follows: Plaque reduction assay, HSV-2, Vero cells. Conditions: Human alphaherpesvirus 2, Vero. It is filed as cell-based, HSV-2 (333). The protocol:
as §1, §2, §3, §4, §5, §6, §7, §8, §9, §10, §11, §12
Background: In a plaque reduction assay, fewer plaques than in the control indicate reduced infectivity or spread.

The test system of data set [3] is HSV-1. Nature of the data set: HSV-1 viral yield inhibition by combined drug exposure. It is filed as cell-based. Conditions: HSV-1, FIG. 34A. From the text:
With either drug alone, a maximum decrease in viral yield was slightly less than three logs (orders of magnitude).
Two days later, the medium was removed.

Data set [4] has as its system HSV-1. Nature of the data set: Topical treatment of ocular HSV-1 infection, rabbits.
Protocol: New Zealand white rabbits were acclimated for a minimum of two days prior to inoculation to allow the animals to accommodate to conditions in the vivarium facility. After the accommodation period, animals received a slit lamp ocular examination to exclude any animals with preexisting anterior segment ocular defects. Animals were bilaterally inoculated topically with an 80 μl drop of Minimal Essential Medium (MEM; Gibco) containing 10^5 pfu/ml McKrae strain HSV-1; eyes were massaged for 30 seconds. Animals were replaced individually in cages.
On day 4 post inoculation (PI), animals were evaluated by slit lamp microscopy. Corneal epithelial, iris, and conjunctival disease were graded on an increasing scale of severity from 0+ to 4+. After evaluation, animals were divided into 4 groups of 5 animals with matched corneal, stromal and conjunctival involvement. Topical therapy was initiated immediately after animal grouping. Therapy groups included:
Group #1: 5 rabbits, Y-1 topical therapy (6.25 μg/50 μl) 5×/dayfor 4 days;
Group #2: 5 rabbits, Y-1 topical therapy (12.5 μg/50 μl) 5×/dayfor 4 days;
Group #3: 5 rabbits, Y-1 topical therapy (18.75 μg/50 μl) 5×/day for 4 days;
Group #4: 5 rabbits, placebo therapy (sterile water) 5×/day for 5 days.
All Y-1 doses were formulated to contain these concentrations in a volume of 50 μl (a standard eye drop).
Topical therapy with 0-19 μg Y-1 in 50 μl was initiated on day 4 post-inoculation (PI) and continued to day 7 PI. All animals received daily ocular slit lamp evaluations from day 3 through day 7 PI. The ocular HSV-1 induced disease severity was recorded daily.
Eyes of all animals were additionally sampled for the presence of infectious HSV-1 on days 0 (pre-inoculation), 3, 5, and 7 PI. Briefly, tear film was obtained by swabbing the lower and upper conjunctival sacs and retaining the swab in the nasal fornix for 10 seconds. The swabs were eluted individually in Hank's Buffered Saline (HBSS, Gibco Laboratories). Fifty microliter aliquots of the virus-HBSS eluate was adsorbed onto confluent HFF cell monolayers for 5 minutes. Monolayers were hydrated with Minimal Essential Medium (MEM; Gibco Laboratories), incubated at 37° C. and observed daily for two weeks to detect cytopathology consistent with HSV infection (HSV CPE).
On day 7 PI (sacrifice), the corneal epithelium was scraped from the eyes and HSV was recovered on HFF cell monolayers. Corneal epithelial co-cultures were evaluated daily by inverted light microscopy.
The next data set relates to HIV-HXB. Nature of the data set: Inhibition of syncytia formation, HIV-HXB (HTLV-IIIB).
For a further data set, the system named is HSV-1 and HSV-2. Nature of the data set: Viral yield inhibition, HeLa cells, plaque count on Vero cells. Conditions: virus yield or CPE assays.
In data set [5] the test system is HSV-2. The data set is described as follows: Topical treatment of genital HSV-2 infection, guinea pigs, second study.
Protocol: In another study using the guinea pig genital model described above, animals were infected with HSV-2, then treated with KY-1 or Y-1 topically at concentrations of 2% or 5% drug. […] Animals were treated and scored daily for severity of infection for 19 days.
The MS strain of HSV-2 was utilized for the experimental animal infection. Female Hartley strain guinea pigs (Charles River Breeding Laboratories, Kingston, NY) weighing 250-300 g were inoculated intravaginally with 2.0×10^5 plaque-forming units of HSV-2 one hour after being swabbed for removal of vaginal secretions.
Formulations of KY-1 or Y-1 were prepared by dissolving the compound in a 1.5% methyl cellulose solution such that final concentration of compound was 2% or 5% (wt/wt). Control animals were given either no treatment (N=10 animals) or treatment with placebo (1.5% methylcellulose solution).
To determine the effect of therapy on the development and spread of external genital lesions, lesion severity was scored on a 0-5+ scale through the primary infection period (19-21 days). Lesion score-day areas and virus titer-day areas under the curve, and peak lesion scores and peak virus titers between untreated and placebo-treated or placebo-treated and drug-treated animals were compared using the Mann-Whitney U range sum test. A p-value of 0.05 or less was considered significant.
Animals were scored daily for 19 days following inoculation for presence of lesions and severity of lesions (on a 0-5+ point scale). Lesion scores were tabulated as area under the curve of daily lesion score vs. time (days) and peak lesion score observed. A known antiviral agent, acyclovir (ACV) was administered in a 5% formulation to 8 animals as a positive control in the study.
Another data set relates to coagulation. The data set is described as follows: Anti-coagulant activity after oral and intravenous administration. It is filed as in vivo. Particulars: protamine sulfate intravenous. The protocol: One of the considerations in the administering the composition, particularly when the drug is administered parenterally or orally, is systemic side effects. Studies conducted in support of the present invention indicate that the calix(n)arene compound, particularly the sulfonic acid compound, may show anti-coagulant activity after oral and intravenous administration. […] The protamine administration is timed to correspond to highest blood levels of the calix(n)arene compounds. In a typical method, a dose of protamine equivalent to about 1 mg per 100 heparin anticoagulant units is administered intravenously simultaneously with IV administration of the calix(n)arene, or 1-2 hours after oral administration of the macrocyclic drug. It is generally recommended that protamine be infused slowly (i.e., not more than a total of 50 mg/10 minutes).

≈ marks a conversion by molar mass, not a printed value.

Protocol for HIV-HXB: Briefly, cells chronically infected with HTLV-IIIB or RF-II HIV strains were incubated in the presence of serial dilutions of the selected KY compound, then further cocultured with indicator cells. The extent of syncytia formation was scored under phase microscopy.
Representative calix(n)arene compounds from Table 2 were tested for inhibition of cytopathic effects in cells infected with one of two HTLV-III strains, HTLV-IIIB and RF-II strains, as described in Example 12, and in the subsection above.
Human CD4^+ indicator cells (VB) and chronically infected H9 cells were maintained in RPMI-1640 medium supplemented with 5% fetal calf serum, 100 Units of penicillin per ml and 100 μg of streptomycin per ml at 37° C. in a humidified incubator containing 7% CO2.
For the fusion assay, serial dilutions between 1:2 and 1:2^8 of a selected KY compound, 1 mg/ml in PBS were made in a 96 well round bottom plate. The diluted KY compound was transferred to a 96 well flat-bottom plate. To each well was added 25 μg chronically infected H9 cells (at 2×10^6, cells/ml), or cells chronically infected with RF-II strain HIV, followed by incubation at 37° C. for 45 minutes. To each well was then added 25 μl VB cells (about 5×10^4 cells), and the cells and virus isolates were cocultured for 18 hours in a humid 5% CO2 atmosphere.
Protocol for HSV-1 and HSV-2: The ability of selected naphthalene-subunit compounds to inhibit HSV-1 and HSV-2 viral yields at selected drug concentrations up to 10 μg/ml was assessed in the viral inhibition assay described in Example 7. Briefly, cultured Hela cells were exposed to serially diluted KY compound and virus, allowed to grow for 24 hours, then freeze/thawed 3 times to release virus particles. Vero cells were infected serial dilutions of the viral lysates were assayed for plaque counts as described in Example 6.
1×10^6 HeLa S3 were plated in 25 T flasks in 5 ml RPMI-1640+5% FCS+P/S. 24 hours later, the medium was aspirated and replaced with 6×10^6 PFU HSV-1 or HSV-2, and serial dilutions of selected KY compounds, at 10, 5, 2.5, 1.25, and 0.625 μg/ml drug. After growth at 37° C. for 24 hours in 2 ml of RPMI-1640 containing 2% FCS and P/S, the cells were frozen at -70° C. until the time for titration. The cells were freeze/thawed 3 times to release virus from the cells, and serially diluted 10 fold.
1×10^5 Vero cells were plated in each well of 24 well multi-dish in 1 ml RPMI-1640+5% FCS+P/S+0.1% methylcellulose (15 cps). On the second day, after removal of the medium, the 10 fold serially diluted virus in 100 μl was added in duplicate. […] The plaques formed were counted and the titer was calculated from the fold of dilutions.

Broadly, the IC50 is the concentration needed to halve the response being measured. For `O=S(=O)(O)c1cc2c(O)c(c1)Cc1cc(S(=O)(=O)O)cc(c1O)Cc1cc(S(=O)(=O)O)cc(c1O)Cc1cc(S(=O)(=O)O)cc(c1O)Cc1cc(S(=O)(=O)O)cc(c1O)Cc1cc(S(=O)(=O)O)cc(c1O)Cc1cc(S(=O)(=O)O)cc(c1O)Cc1cc(S(=O)(=O)O)cc(c1O)C2` [Y-1], the IC50 in the data set with HSV-1 [1] (Human alphaherpesvirus 1, Vero, plaque reduction, Vero cells) was 7 µg/mL (≈ 4.7 µM); with HSV-2 [2], 7.2 µg/mL (≈ 4.83 µM); with HIV-HXB (Human immunodeficiency virus 1, read-out: HIV-HXB IC50), 16 µg/mL (≈ 10.7 µM). The “relative anti-HSV activity, in words” value with HSV-1 [1] (plaque reduction HSV-1 and HSV-2) was “somewhat more active than the corresponding n=4 and n=6 compounds”. Also, the “maximum decrease in viral yield, either drug alone” value with HSV-1 [3] is “less than three”. Further, in the data set with HSV-1 [4] (12.5 μg/50 μl topical), the “ocular disease, 12.5 μg/50 μl” value is “most effective ocular therapy”. Also, the “corneal epithelial HSV-1 induced disease, 18.75 μg/50 μl” value in the data set on HSV-1 [4] (18.75 μg/50 μl topical) is recorded as “effective in reducing the development of corneal epithelial HSV-1induced disease”. The “toxicity to corneal epithelial surface, conjunctiva, iris and stroma” value in the data set with HSV-1 [4] (18.75 μg/50 μl, days 6 and 7) is “somewhat toxic to the corneal epithelial surface and to the conjunctiva, iris and stroma”. In addition, the “ocular disease severity versus placebo” value in the data set on HSV-1 [4] (all concentrations, topical) is recorded as “effective in reducing the development of HSV-1 induced ocular disease”. Moreover, in the data set on HSV-1 [4] (day 7), the “viral titer in epithelial scrapings” value is recorded as “dose-dependent reduction in viral titer”. Moreover, the “relative activity against HXB strain, in words” value with HIV-HXB (HXB strain) was “comparable activities against the HXB strain”. In the data set with HSV-1 and HSV-2, this compound registered an ED90 concentration of 12.5 μg/50 μl. In the data set on HSV-2 [5] (2% or 6%, 6 h treatment), the “lesions versus placebo, in words” value is “reduced numbers of animals exhibiting lesions, decreased mean lesion scores and decreased peak lesion score”. Also, the “% Animals with Lesions” value with HSV-2 [5] (2%, 6 h) worked out at 66.7%; in the data set with HSV-2 [5] (2%, 24 h) it was 60%; with HSV-2 [5] (6%, 6 h), 30%; with HSV-2 [5] (6%, 24 h), 40%. In addition, the “Lesion Score (AUC)” value in the data set on HSV-2 [5] (2%, 6 h) amounted to 16.9; in the data set on HSV-2 [5] (2%, 24 h) it was 22.0; in the data set with HSV-2 [5] (6%, 6 h) it was 8.1; with HSV-2 [5] (6%, 24 h), 14.7. Besides, the “Mean Peak lesion score” value in the data set on HSV-2 [5] (2%, 6 h) amounted to 1.8; in the data set on HSV-2 [5] (2%, 24 h), 2.3; in the data set on HSV-2 [5] (6%, 6 h) it was 1.2; in the data set on HSV-2 [5] (6%, 24 h) it was 1.8. For the same compound, the “lesions, in words” value in the data set on HSV-2 [5] (24 hours post-infection, 6% KY-1 or Y-1, 2% KY-1) is “reduced numbers of lesion bearing animals and reduced severity of lesions”.

For the compound protamine sulfate, the “blocking of anticoagulant effect of calix(n)arene” value with coagulation is reported as “effectively blocked”.

For the origin of these results see patent publication US5441983A, “Treatment of infection by enveloped virus with calix(N)arene compounds” (Genelabs Incorporated, priority 1992, dated 1995).
